From patent US20090226455A1, “COMBINATION THERAPY WITH C-MET AND HER ANTAGONISTS” (Genentech, Inc., priority 2008, published 2009)

What was measured:
EBC-1 shMet-4.5 tumors = test: EBC-1 shMet-4.5 NSCLC xenograft model, tumor growth inhibition; type: in vivo, nude mice (nu/nu); conditions: compared to sucrose control at day 29; pertuzumab 5 mg/kg IP once a week; Dox 1 mg/mL in 5% sucrose drinking water (induces c-met shRNA knockdown)
Procedure: Control antibodies mouse IgG2a isotype 10D9-1E11-1F12 (anti-Ragweed) antibody and the human IgG1 isotype hu5B6 (anti-gD) antibody were obtained from the Antibody Engineering Department at Genentech, Inc., in a clear liquid form and were diluted in 1×PBS. Doxycycline (Dox) was prepared fresh at 0.5 or 1 mg/mL in 5% sucrose water and was regularly exchanged every 3 days. In Dox studies, control animals were given 5% sucrose water that was exchanged every 3 days. Materials were stored in a refrigerator set to maintain a temperature range of 4° C. to 8° C. […]
To prepare cells for inoculation into mice, cells were trypsinized, washed with ten milliliters of sterile 1× phosphate buffered saline (PBS). A subset of cells was counted by trypan blue exclusion and the remainder of cells was resuspended in 100 μl of sterile 1× PBS to a concentration of 5×10^7 cells per milliliter. […] Tumors were monitored until they reached a mean volume of 200 mm^3.
Mice in Group 1 were treated with anti-Ragweed control antibody (5 mg/kg, IP, once a week for 5 weeks) and given 5% sucrose drinking water. […] Tumor volumes were monitored through day 29. […]
Tumor inhibition was plotted using KaleidaGraph 3.6 (Synergy Software; Reading, Pa.). Percent growth inhibition (% Inh) was calculated as follows: […]
Tumor incidence was determined by the number of measurable tumors in each group at the end of study. […]

advanced ovarian cancer = conditions: 3 subjects with advanced ovarian cancer treated; one subject; cited from earlier work

Compound: pertuzumab: humanized antibody that inhibits the dimerization of HER2 with other HER receptors; light and heavy chain SEQ ID NOs 15 and 16
- tumor inhibition (reduction in tumor growth) (EBC-1 shMet-4.5 tumors): 43.6%
- clinical response (advanced ovarian cancer): durable partial response

Compound: C[C@H]1c2cccc(O)c2C(=O)C2=C(O)[C@]3(O)C(=O)C(C(N)=O)=C(O)[C@@H](N(C)C)[C@@H]3[C@@H](O)[C@@H]21 [Dox, Doxycycline, reference compound]
- tumor inhibition (reduction in tumor growth) (EBC-1 shMet-4.5 tumors): 54%
